Measured values published in patent US20170051034A1 (Novo Nordisk A/S, priority 2010, published 2017).
Numbered stars: 1 amine (or outer) side, 2 acyl side, 3 side chain; on linkers, the order of the positions; unused ones are H or OH. Side chains are listed from the residue outwards. Peptide text beside a SMILES is read from it. * marks the point of attachment. C18 diacid = O=C(O)CCCCCCCCCCCCCCCCC(=O)*; C16 diacid = O=C(O)CCCCCCCCCCCCCCC(=O)*; γGlu = O=C(O)[C@H](CCC(=O)[*:2])N[*:1]; AEEA = NCCOCCOCC(=O)O

Legend:
glucagon receptor = glucagon receptor (Homo sapiens, UniProt P47871); experiment: cell-based
Description: The cells (14000 per well) were incubated (37° C., 5% CO2) overnight in 384-well plates. Next day the cells were loaded with a calcium responsive dye that only distributed into the cytoplasm. Probenecid, an inhibitor of the organic anion transporter, was added to prevent the dye from leaving the cell. A PDE inhibitor was added to prevent formatted cAMP from being degraded. […] End point data were collected after 6 minutes. An increase in intracellular cAMP was proportional to an increased in calcium concentrations in the cytoplasm. […] EC50-values were calculated in Prism5.

[1] = ThT fibrillation assay (lag time and recovery); assay type: physicochemical; conditions: Table 2
Description: This has traditionally been measured by visual inspection of the sample. However, that kind of measurement is very subjective and depending on the observer. Therefore, the application of a small molecule indicator probe is much more advantageous. […] Enzymol.
The constant t0 is the time needed to reach 50% of maximum fluorescence. The two important parameters describing fibril formation are the lag-time calculated by t0−2τ and the apparent rate constant kapp 1/τ.
Samples were prepared freshly before each assay. […] The pH of the sample was adjusted to the desired value using appropriate amounts of concentrated NaOH and HCl. Thioflavin T was added to the samples from a stock solution in H2O to a final concentration of 1 μM.
The plate was sealed with Scotch Pad (Qiagen).
Each run was initiated by incubating the plate at the assay temperature for 10 min. The plate was measured every 20 minutes for a desired period of time. Between each measurement, the plate was shaken and heated as described.
The supernatant was filtered through a 0.22 μm filter and an aliquot was transferred to a HPLC vial.
The measurement points were saved in Microsoft Excel format for further processing and curve drawing and fitting was performed using GraphPad Prism. […] The data set may be fitted to Eq. (1).

Chain of glucagon receptor (P47871 26-477): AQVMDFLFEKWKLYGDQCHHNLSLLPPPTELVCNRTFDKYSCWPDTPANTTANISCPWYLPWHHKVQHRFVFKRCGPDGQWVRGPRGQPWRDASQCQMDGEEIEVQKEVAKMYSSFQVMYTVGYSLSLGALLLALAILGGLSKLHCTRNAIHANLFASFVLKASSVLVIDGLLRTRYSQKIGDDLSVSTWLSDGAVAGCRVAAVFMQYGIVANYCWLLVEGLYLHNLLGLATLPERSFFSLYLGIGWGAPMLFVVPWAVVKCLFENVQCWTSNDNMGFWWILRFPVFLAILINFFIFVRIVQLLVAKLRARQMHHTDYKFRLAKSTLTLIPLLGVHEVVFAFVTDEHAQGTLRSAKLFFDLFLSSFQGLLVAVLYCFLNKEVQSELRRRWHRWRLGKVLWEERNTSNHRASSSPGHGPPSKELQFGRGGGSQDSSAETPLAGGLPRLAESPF

| Structure (SMILES) | EC50 (glucagon receptor) [pM] | ThT assay [Lag time] [1] [h] |
| --- | --- | --- |
| CC(C)C[C@H](NC(=O)[C@H](Cc1ccc(O)cc1)NC(=O)[C@H](CCCCN)NC(=O)[C@H](CO)NC(=O)[C@H](Cc1ccc(O)cc1)NC(=O)[C@H](CC(=O)O)NC(=O)[C@H](CO)NC(=O)[C@@H](NC(=O)[C@H](Cc1ccccc1)NC(=O)[C@@H](NC(=O)CNC(=O)[C@H](CCC(N)=O)NC(=O)[C@H](CO)NC(=O)[C@@H](N)Cc1c[nH]cn1)[C@@H](C)O)[C@@H](C)O)C(=O)N[C@@H](CC(=O)O)C(=O)N[C@@H](CO)C(=O)N[C@@H](CCCCN)C(=O)N[C@@H](CCCCN)C(=O)N[C@@H](C)C(=O)N[C@@H](CCC(N)=O)C(=O)N[C@@H](CCC(=O)O)C(=O)N[C@@H](Cc1ccccc1)C(=O)N[C@H](C(=O)N[C@@H](CCC(N)=O)C(=O)N[C@@H](Cc1c[nH]c2ccccc12)C(=O)N[C@@H](CC(C)C)C(=O)N[C@@H](CC(C)C)C(=O)N[C@@H](CC(N)=O)C(=O)N[C@H](C(=O)O)[C@@H](C)O)C(C)C [[K^17, K^18, E^21, L^27] Glucagon, H—HSQGTFTSDYSKYLDSKKAQEFVQWLLNT—OH, reference compound] (H-HSQGTFTSDYSKYLDSKKAQEFVQWLLNT-OH) | 3 | 1 |
| CC(C)C[C@H](NC(=O)[C@H](Cc1ccc(O)cc1)NC(=O)[C@H](CCCCN)NC(=O)[C@H](CO)NC(=O)[C@H](Cc1ccc(O)cc1)NC(=O)[C@H](CC(=O)O)NC(=O)[C@H](CO)NC(=O)[C@@H](NC(=O)[C@H](Cc1ccccc1)NC(=O)[C@@H](NC(=O)CNC(=O)[C@H](CCC(N)=O)NC(=O)[C@H](CO)NC(=O)[C@@H](N)Cc1c[nH]cn1)[C@@H](C)O)[C@@H](C)O)C(=O)N[C@@H](CC(=O)O)C(=O)N[C@@H](CO)C(=O)N[C@@H](CCCCN)C(=O)N[C@@H](CCCCN)C(=O)N[C@@H](C)C(=O)N[C@@H](CCC(N)=O)C(=O)N[C@@H](CCC(=O)O)C(=O)N[C@@H](Cc1ccccc1)C(=O)N[C@H](C(=O)N[C@@H](CCCCNC(=O)COCCOCCNC(=O)COCCOCCNC(=O)CC[C@H](NC(=O)CCCCCCCCCCCCCCCCC(=O)O)C(=O)O)C(=O)N[C@@H](Cc1c[nH]c2ccccc12)C(=O)N[C@@H](CC(C)C)C(=O)N[C@@H](CC(C)C)C(=O)N[C@@H](CC(=O)O)C(=O)N[C@H](C(=O)O)[C@@H](C)O)C(C)C [Example 67, N^ε24-[2-[2-[2-[[2-[2-[2-[[(4S)-4-carboxy-4-(17-carboxyheptadecanoylamino)butanoyl]amino]ethoxy]ethoxy]acetyl]amino]ethoxy]ethoxy]acetyl]-[Lys^17,Lys^18,Glu^21,Lys^24,Leu^27,Asp^28]-Glucagon] (H-HSQGTFTSDYSKYLDSKKAQEFVK([AEEA-AEEA-γGlu-C18 diacid])WLLDT-OH) | 51 | – |
| CC(C)C[C@H](NC(=O)[C@H](Cc1ccc(O)cc1)NC(=O)[C@H](CCCCN)NC(=O)[C@H](CO)NC(=O)[C@H](Cc1ccc(O)cc1)NC(=O)[C@H](CC(=O)O)NC(=O)[C@H](CO)NC(=O)[C@@H](NC(=O)[C@H](Cc1ccccc1)NC(=O)[C@@H](NC(=O)CNC(=O)[C@H](CCC(N)=O)NC(=O)[C@H](CO)NC(=O)[C@@H](N)Cc1c[nH]cn1)[C@@H](C)O)[C@@H](C)O)C(=O)N[C@@H](CC(=O)O)C(=O)N[C@@H](CO)C(=O)N[C@@H](CCCCN)C(=O)N[C@@H](CCCCN)C(=O)N[C@@H](C)C(=O)N[C@@H](CCC(N)=O)C(=O)N[C@@H](CCC(=O)O)C(=O)N[C@@H](Cc1ccccc1)C(=O)N[C@H](C(=O)N[C@@H](CCCCNC(=O)COCCOCCNC(=O)COCCOCCNC(=O)CC[C@H](NC(=O)CCCCCCCCCCCCCCC(=O)O)C(=O)O)C(=O)N[C@@H](Cc1c[nH]c2ccccc12)C(=O)N[C@@H](CC(C)C)C(=O)N[C@@H](CC(C)C)C(=O)N[C@@H](CO)C(=O)N[C@H](C(=O)O)[C@@H](C)O)C(C)C [Example 69, N^ε24-[2-[2-[2-[[2-[2-[2-[[(4S)-4-carboxy-4-(15-carboxypentadecanoylamino)butanoyl]amino]ethoxy]ethoxy]acetyl]amino]ethoxy]ethoxy]acetyl]-[Lys^17,Lys^18,Glu^21,Lys^24,Leu^27,Ser^28]-Glucagon] (H-HSQGTFTSDYSKYLDSKKAQEFVK([AEEA-AEEA-γGlu-C16 diacid])WLLST-OH) | 6 | – |
